# Calls of active or inactive are those of the source. The rule behind the calls is not given here.
# Tests used:
# Trypanosoma cruzi [1] = test: Antitrypanosomal activity against Trypanosoma cruzi Y bloodstream trypomastigotes after 24 hrs by light microscope; type: functional, organism-based
# Trypanosoma cruzi [2] = test: Antitrypanosomal activity against Trypanosoma cruzi Y amastigotes after 24 hrs by light microscope; type: functional, organism-based
# Trypanosoma cruzi [3] = test: Antitrypanosomal activity against Trypanosoma cruzi Y bloodstream trypomastigotes assessed as intracellular dilated membrane profile after 24 hrs by transmission electron micrograph; type: functional, organism-based
# Trypanosoma cruzi [4] = test: Antitrypanosomal activity against Trypanosoma cruzi Y bloodstream trypomastigotes assessed as microtubule axoneme structure after 24 hrs by transmission electron micrograph; type: functional, organism-based
# Trypanosoma cruzi [5] = test: Antitrypanosomal activity against Trypanosoma cruzi Y bloodstream trypomastigotes assessed as alteration in microtubule organization after 24 hrs by transmission electron micrograph; type: functional, organism-based
# Trypanosoma cruzi [6] = test: Antitrypanosomal activity against Trypanosoma cruzi Y bloodstream trypomastigotes assessed as reduction in mitochondrial membrane potential at IC50 after 24 hrs by flow cytometry; type: functional
# Trypanosoma cruzi [7] = test: Antitrypanosomal activity against Trypanosoma cruzi Y bloodstream trypomastigotes assessed as parasite death at 32 uM after 24 hrs by light microscope; type: functional
# Trypanosoma cruzi [8] = test: Antitrypanosomal activity against Trypanosoma cruzi Y bloodstream trypomastigotes assessed as swelling in mitochondria and kinetoplast after 24 hrs by transmission electron micrograph; type: functional, organism-based
# Trypanosoma cruzi [9] = test: Antitrypanosomal activity against Trypanosoma cruzi Y bloodstream trypomastigotes assessed as alteration in mitochondria-kinetoplast complex after 24 hrs by transmission electron micrograph; type: functional, organism-based
# Trypanosoma cruzi [10] = test: Antitrypanosomal activity against Trypanosoma cruzi Y bloodstream trypomastigotes assessed as parasite death at 32 uM after 2 hrs by light microscope; type: functional
# Trypanosoma cruzi [11] = test: Antitrypanosomal activity against Trypanosoma cruzi Y bloodstream trypomastigotes assessed as parasite death at 3.5 uM after 24 hrs by light microscope; type: functional
# Trypanosoma cruzi [12] = test: Antitrypanosomal activity against Trypanosoma cruzi Y bloodstream trypomastigotes assessed as parasite lysis at 3.5 uM after 24 hrs by light microscope; type: functional
# Trypanosoma cruzi [13] = test: Antitrypanosomal activity against Trypanosoma cruzi Y bloodstream trypomastigotes assessed as alteration in nuclear morphology after 24 hrs by transmission electron micrograph; type: functional, organism-based
# Trypanosoma cruzi [14] = test: Antitrypanosomal activity against Trypanosoma cruzi Y amastigotes assessed as disorganization of kinetoplast at IC50 after 24 hrs by transmission electron microscopy; type: functional, organism-based
# Trypanosoma cruzi [15] = test: Antitrypanosomal activity against Trypanosoma cruzi Y amastigotes assessed as vacuolization and loss of cytoplasm components at IC50 after 24 hrs by transmission electron microscopy; type: functional, organism-based
# Trypanosoma cruzi [16] = test: Antitrypanosomal activity against Trypanosoma cruzi Y bloodstream trypomastigotes at 1.18 uM after 2 hrs by light microscope; type: functional
# Trypanosoma cruzi [17] = test: Antitrypanosomal activity against Trypanosoma cruzi Y amastigotes assessed as alteration in nuclear morphology at IC50 after 24 hrs by transmission electron microscopy; type: functional, organism-based
# Trypanosoma cruzi [18] = test: Antitrypanosomal activity against Trypanosoma cruzi Y amastigotes assessed as intense vesicular profile in flageller pocket at IC50 after 24 hrs by transmission electron microscopy; type: functional, organism-based
# Trypanosoma cruzi [19] = test: Antitrypanosomal activity against Trypanosoma cruzi Y amastigotes assessed as disorganization of subpellicular mitochondria at IC50 after 24 hrs by transmission electron microscopy; type: functional, organism-based
# Trypanosoma cruzi [20] = test: Antitrypanosomal activity against Trypanosoma cruzi Y bloodstream trypomastigotes assessed as parasite death at 0.014 uM after 24 hrs by light microscope; type: functional
# Trypanosoma cruzi [21] = test: Antitrypanosomal activity against Trypanosoma cruzi Y amastigotes assessed as swelling and electrodense mitochondria at IC50 after 24 hrs by transmission electron microscopy; type: functional, organism-based
smiles,measurement,setting,value
COc1cc(NC(=N)N)ccc1-c1ccc(-c2ccc(NC(=N)N)cc2OC)o1,IC50,Trypanosoma cruzi [1],19400 nM
same,IC50,Trypanosoma cruzi [2],> 10600 nM
same,Activity,Trypanosoma cruzi [3],Active
same,Activity,Trypanosoma cruzi [4],Active
same,Activity,Trypanosoma cruzi [5],Active
same,Activity,Trypanosoma cruzi [6],inactive
same,Activity,Trypanosoma cruzi [7],84%
same,Activity,Trypanosoma cruzi [8],Active
same,Activity,Trypanosoma cruzi [9],Active
same,Activity,Trypanosoma cruzi [10],23%
N=C(Nc1ccc(-c2cc(-c3ccccc3)c(-c3ccc(NC(=N)c4ccccn4)cc3)o2)cc1)c1ccccn1,Activity,Trypanosoma cruzi [11],100%
same,IC50,Trypanosoma cruzi [1],90 nM
same,Activity,Trypanosoma cruzi [12],Active
same,IC50,Trypanosoma cruzi [2],8.6 nM
same,Activity,Trypanosoma cruzi [13],Active
same,Activity,Trypanosoma cruzi [4],Active
same,Activity,Trypanosoma cruzi [14],Active
same,Activity,Trypanosoma cruzi [15],Active
same,Activity,Trypanosoma cruzi [16],55%
same,Activity,Trypanosoma cruzi [17],Active
same,Activity,Trypanosoma cruzi [6],59%
same,Activity,Trypanosoma cruzi [8],Active
same,Activity,Trypanosoma cruzi [18],Active
Cc1ccc(C(=N)Nc2ccc(-c3ccc(-c4ccc(NC(=N)c5ccc(C)cn5)cc4OC(C)C)o3)c(OC(C)C)c2)nc1,Activity,Trypanosoma cruzi [11],95%
same,IC50,Trypanosoma cruzi [1],15 nM
same,Activity,Trypanosoma cruzi [12],50%
same,IC50,Trypanosoma cruzi [2],1140 nM
same,Activity,Trypanosoma cruzi [19],Active
same,Activity,Trypanosoma cruzi [6],55%
same,Activity,Trypanosoma cruzi [20],49%
Cc1cc(NC(=N)c2ccccn2)ccc1-c1ccc(-c2ccc(NC(=N)c3ccccn3)cc2C)o1,Activity,Trypanosoma cruzi [11],95%
same,IC50,Trypanosoma cruzi [1],450 nM
same,Activity,Trypanosoma cruzi [12],55%
same,Activity,Trypanosoma cruzi [21],Active
same,IC50,Trypanosoma cruzi [2],240 nM
same,Activity,Trypanosoma cruzi [6],54%
same,Activity,Trypanosoma cruzi [18],Active

# From ChEMBL document CHEMBL1138534, “Cellular effects of reversed amidines on Trypanosoma cruzi” (Antimicrob Agents Chemother, 2007)
